Laboratory results as given in ChEMBL document CHEMBL5678818, “Discovery of potent SOS1 inhibitors that block RAS activation via disruption of the RAS-SOS1 interaction” (Proc Natl Acad Sci U S A, 2019).

Columns and labels:
[1] = target: Serine/threonine-protein kinase WNK2 (Homo sapiens) (UniProt Q9Y3S1); experiment: Inhibition of WNK2 (unknown origin) assessed as residual activity at 1000 nM by KINOMEscan analysis relative to control
[2] = target: Ribosomal protein S6 kinase alpha-2 (Homo sapiens) (UniProt Q15349); experiment: Inhibition of N-terminal RSK3 […] domain 1 (unknown origin) assessed as residual activity at 100 nM by KINOMEscan analysis relative to control
Chain of Ribosomal protein S6 kinase alpha-2 (Homo sapiens) (Q15349 whole entry): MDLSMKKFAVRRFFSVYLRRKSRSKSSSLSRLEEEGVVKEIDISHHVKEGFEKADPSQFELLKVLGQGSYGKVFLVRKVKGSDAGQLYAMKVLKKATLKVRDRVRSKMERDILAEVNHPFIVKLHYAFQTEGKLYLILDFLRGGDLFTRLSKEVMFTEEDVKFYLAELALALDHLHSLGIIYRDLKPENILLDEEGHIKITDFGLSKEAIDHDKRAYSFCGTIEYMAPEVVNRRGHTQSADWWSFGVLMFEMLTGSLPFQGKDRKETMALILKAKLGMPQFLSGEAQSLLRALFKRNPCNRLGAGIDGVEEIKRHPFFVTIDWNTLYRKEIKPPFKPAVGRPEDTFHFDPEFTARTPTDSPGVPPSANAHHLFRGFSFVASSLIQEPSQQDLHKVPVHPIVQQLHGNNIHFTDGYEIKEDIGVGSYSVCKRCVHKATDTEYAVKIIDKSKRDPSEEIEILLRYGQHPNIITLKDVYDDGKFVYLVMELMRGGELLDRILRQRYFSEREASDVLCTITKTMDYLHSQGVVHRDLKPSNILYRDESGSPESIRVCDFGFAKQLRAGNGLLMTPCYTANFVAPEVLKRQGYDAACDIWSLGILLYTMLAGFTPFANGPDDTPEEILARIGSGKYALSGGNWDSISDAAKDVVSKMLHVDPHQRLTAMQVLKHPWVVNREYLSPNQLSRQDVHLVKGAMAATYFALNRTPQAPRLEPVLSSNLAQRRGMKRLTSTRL

[3] = target: Activated CDC42 kinase 1 (Homo sapiens) (UniProt Q07912); experiment: Inhibition of TNK2 (unknown origin) assessed as residual activity at 100 nM by KINOMEscan analysis relative to control
[4] = target: T1, Muscle, skeletal receptor tyrosine-protein kinase (Homo sapiens) (UniProt O15146); experiment: Inhibition of MUSK (unknown origin) assessed as residual activity at 100 nM by KINOMEscan analysis relative to control
T1 sequence (whole entry): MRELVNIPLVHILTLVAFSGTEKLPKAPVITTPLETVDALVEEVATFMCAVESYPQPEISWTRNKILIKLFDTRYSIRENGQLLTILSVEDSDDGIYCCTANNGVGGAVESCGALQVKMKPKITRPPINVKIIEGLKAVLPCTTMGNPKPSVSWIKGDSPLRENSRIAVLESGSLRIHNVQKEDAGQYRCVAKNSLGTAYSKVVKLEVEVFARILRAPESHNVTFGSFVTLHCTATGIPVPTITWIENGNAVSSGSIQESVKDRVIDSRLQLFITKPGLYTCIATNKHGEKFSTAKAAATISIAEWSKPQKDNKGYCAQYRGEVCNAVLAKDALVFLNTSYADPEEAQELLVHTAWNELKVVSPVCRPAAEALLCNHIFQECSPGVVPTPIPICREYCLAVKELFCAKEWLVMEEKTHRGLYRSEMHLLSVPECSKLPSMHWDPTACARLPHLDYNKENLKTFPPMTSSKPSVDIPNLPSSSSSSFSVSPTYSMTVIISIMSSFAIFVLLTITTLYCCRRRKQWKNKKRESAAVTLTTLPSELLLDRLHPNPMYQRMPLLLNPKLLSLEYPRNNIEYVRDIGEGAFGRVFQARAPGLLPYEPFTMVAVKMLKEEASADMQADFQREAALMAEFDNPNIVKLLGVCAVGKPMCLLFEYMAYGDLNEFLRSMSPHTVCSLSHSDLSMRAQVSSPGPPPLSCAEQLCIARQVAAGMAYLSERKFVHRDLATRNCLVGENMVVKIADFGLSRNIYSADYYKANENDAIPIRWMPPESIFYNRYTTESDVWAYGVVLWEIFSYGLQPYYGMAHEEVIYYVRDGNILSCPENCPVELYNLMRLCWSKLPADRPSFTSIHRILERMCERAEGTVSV

[5] = target: LIM domain kinase 2 (Homo sapiens) (UniProt P53671); experiment: Inhibition of LIMK2 (unknown origin) assessed as residual activity at 100 nM by KINOMEscan analysis relative to control
[6] = target: Tyrosine-protein kinase Srms (Homo sapiens) (UniProt Q9H3Y6); experiment: Inhibition of SRMS (unknown origin) assessed as residual activity at 100 nM by KINOMEscan analysis relative to control
[7] = target: Tyrosine-protein kinase ABL2 (Homo sapiens) (UniProt P42684); experiment: Inhibition of ABL2 (unknown origin) assessed as residual activity at 100 nM by KINOMEscan analysis relative to control
[8] = target: Myosin light chain kinase 3 (Homo sapiens) (UniProt Q32MK0); experiment: Inhibition of MLCK (unknown origin) assessed as residual activity at 100 nM by KINOMEscan analysis relative to control
[9] = target: T2, Aurora kinase C (Homo sapiens) (UniProt Q9UQB9); experiment: Inhibition of AURKC (unknown origin) assessed as residual activity at 100 nM by KINOMEscan analysis relative to control
T2 sequence (whole entry): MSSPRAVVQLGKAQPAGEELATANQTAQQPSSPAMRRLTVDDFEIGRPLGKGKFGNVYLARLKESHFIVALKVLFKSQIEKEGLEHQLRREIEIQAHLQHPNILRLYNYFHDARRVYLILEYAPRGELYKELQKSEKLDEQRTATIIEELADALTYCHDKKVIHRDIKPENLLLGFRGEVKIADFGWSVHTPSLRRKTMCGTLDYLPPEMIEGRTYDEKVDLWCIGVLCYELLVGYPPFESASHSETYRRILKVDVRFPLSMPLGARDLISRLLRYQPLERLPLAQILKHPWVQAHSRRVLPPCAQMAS

[10] = target: Interferon-induced, double-stranded RNA-activated protein kinase (Homo sapiens) (UniProt P19525); experiment: Inhibition of PRKR (unknown origin) assessed as residual activity at 100 nM by KINOMEscan analysis relative to control
[11] = target: Calcium/calmodulin-dependent protein kinase type 1 (Homo sapiens) (UniProt Q14012); experiment: Inhibition of CAMK1 (unknown origin) assessed as residual activity at 100 nM by KINOMEscan analysis relative to control
[12] = target: Tyrosine-protein kinase Yes (Homo sapiens) (UniProt P07947); experiment: Inhibition of YES (unknown origin) assessed as residual activity at 100 nM by KINOMEscan analysis relative to control
Chain of Tyrosine-protein kinase Yes (Homo sapiens) (P07947 2-543 limits assumed): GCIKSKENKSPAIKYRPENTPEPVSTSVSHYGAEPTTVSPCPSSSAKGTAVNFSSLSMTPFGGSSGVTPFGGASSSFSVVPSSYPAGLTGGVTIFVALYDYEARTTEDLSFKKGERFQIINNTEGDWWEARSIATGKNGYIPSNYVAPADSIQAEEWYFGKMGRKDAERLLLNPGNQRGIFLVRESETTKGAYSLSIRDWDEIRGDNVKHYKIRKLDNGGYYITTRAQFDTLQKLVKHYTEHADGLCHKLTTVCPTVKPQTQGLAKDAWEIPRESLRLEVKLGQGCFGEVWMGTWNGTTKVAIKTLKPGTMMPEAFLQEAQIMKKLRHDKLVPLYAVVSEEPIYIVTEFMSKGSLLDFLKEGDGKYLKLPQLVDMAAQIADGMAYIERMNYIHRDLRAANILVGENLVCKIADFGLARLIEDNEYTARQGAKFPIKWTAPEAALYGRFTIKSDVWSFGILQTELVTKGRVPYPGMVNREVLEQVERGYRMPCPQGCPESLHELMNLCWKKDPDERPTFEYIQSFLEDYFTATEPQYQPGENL

[13] = target: Peripheral plasma membrane protein CASK (Homo sapiens) (UniProt O14936); experiment: Inhibition of CASK (unknown origin) assessed as residual activity at 100 nM by KINOMEscan analysis relative to control
[14] = target: RAC-gamma serine/threonine-protein kinase (Homo sapiens) (UniProt Q9Y243); experiment: Inhibition of AKT3 (unknown origin) assessed as residual activity at 100 nM by KINOMEscan analysis relative to control
Chain of RAC-gamma serine/threonine-protein kinase (Homo sapiens) (Q9Y243 whole entry): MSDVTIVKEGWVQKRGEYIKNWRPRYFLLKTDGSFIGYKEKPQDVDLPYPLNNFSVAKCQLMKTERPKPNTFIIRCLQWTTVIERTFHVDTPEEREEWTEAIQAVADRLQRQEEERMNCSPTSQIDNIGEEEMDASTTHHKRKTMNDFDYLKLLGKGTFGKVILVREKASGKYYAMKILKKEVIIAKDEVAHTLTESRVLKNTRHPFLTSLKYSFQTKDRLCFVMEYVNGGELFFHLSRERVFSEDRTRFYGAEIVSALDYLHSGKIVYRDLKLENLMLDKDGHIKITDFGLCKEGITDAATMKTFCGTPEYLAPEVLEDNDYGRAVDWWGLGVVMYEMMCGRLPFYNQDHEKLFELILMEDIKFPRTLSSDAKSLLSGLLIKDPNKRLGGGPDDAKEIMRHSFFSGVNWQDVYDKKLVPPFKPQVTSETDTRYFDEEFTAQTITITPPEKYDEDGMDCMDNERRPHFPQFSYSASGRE

[15] = target: Cyclin-dependent kinase 9 (Homo sapiens) (UniProt P50750); experiment: Inhibition of CDK9 (unknown origin) assessed as residual activity at 100 nM by KINOMEscan analysis relative to control
[16] = target: Serine/threonine-protein kinase Nek4 (Homo sapiens) (UniProt P51957); experiment: Inhibition of NEK4 (unknown origin) assessed as residual activity at 100 nM by KINOMEscan analysis relative to control
Chain of Serine/threonine-protein kinase Nek4 (Homo sapiens) (P51957 whole entry, looked up): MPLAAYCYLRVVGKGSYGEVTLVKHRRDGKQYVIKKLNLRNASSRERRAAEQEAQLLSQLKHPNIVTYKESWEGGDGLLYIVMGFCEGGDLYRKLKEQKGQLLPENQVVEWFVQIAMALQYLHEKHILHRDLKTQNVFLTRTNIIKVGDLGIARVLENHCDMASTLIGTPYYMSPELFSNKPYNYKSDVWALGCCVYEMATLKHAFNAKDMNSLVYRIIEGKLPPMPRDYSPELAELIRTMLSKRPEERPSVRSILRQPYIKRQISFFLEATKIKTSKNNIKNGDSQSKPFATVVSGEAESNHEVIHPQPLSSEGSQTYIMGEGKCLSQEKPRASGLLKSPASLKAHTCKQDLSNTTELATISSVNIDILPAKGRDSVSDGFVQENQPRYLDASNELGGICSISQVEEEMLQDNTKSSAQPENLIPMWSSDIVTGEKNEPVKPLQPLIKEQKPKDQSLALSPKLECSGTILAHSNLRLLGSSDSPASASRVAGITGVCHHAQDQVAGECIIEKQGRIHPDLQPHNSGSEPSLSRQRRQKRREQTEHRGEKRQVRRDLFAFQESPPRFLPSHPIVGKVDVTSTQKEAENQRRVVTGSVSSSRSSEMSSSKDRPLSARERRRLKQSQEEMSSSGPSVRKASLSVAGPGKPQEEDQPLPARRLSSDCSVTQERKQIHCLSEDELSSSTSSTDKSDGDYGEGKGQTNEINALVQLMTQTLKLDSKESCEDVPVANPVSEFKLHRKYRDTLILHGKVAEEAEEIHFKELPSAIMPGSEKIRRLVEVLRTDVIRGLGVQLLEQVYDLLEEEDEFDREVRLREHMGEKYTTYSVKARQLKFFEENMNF

[17] = target: Mitogen-activated protein kinase kinase kinase 10 (Homo sapiens) (UniProt Q02779); experiment: Inhibition of MLK2 (unknown origin) assessed as residual activity at 100 nM by KINOMEscan analysis relative to control

Chain of Serine/threonine-protein kinase WNK2 (Homo sapiens) (Q9Y3S1 whole entry): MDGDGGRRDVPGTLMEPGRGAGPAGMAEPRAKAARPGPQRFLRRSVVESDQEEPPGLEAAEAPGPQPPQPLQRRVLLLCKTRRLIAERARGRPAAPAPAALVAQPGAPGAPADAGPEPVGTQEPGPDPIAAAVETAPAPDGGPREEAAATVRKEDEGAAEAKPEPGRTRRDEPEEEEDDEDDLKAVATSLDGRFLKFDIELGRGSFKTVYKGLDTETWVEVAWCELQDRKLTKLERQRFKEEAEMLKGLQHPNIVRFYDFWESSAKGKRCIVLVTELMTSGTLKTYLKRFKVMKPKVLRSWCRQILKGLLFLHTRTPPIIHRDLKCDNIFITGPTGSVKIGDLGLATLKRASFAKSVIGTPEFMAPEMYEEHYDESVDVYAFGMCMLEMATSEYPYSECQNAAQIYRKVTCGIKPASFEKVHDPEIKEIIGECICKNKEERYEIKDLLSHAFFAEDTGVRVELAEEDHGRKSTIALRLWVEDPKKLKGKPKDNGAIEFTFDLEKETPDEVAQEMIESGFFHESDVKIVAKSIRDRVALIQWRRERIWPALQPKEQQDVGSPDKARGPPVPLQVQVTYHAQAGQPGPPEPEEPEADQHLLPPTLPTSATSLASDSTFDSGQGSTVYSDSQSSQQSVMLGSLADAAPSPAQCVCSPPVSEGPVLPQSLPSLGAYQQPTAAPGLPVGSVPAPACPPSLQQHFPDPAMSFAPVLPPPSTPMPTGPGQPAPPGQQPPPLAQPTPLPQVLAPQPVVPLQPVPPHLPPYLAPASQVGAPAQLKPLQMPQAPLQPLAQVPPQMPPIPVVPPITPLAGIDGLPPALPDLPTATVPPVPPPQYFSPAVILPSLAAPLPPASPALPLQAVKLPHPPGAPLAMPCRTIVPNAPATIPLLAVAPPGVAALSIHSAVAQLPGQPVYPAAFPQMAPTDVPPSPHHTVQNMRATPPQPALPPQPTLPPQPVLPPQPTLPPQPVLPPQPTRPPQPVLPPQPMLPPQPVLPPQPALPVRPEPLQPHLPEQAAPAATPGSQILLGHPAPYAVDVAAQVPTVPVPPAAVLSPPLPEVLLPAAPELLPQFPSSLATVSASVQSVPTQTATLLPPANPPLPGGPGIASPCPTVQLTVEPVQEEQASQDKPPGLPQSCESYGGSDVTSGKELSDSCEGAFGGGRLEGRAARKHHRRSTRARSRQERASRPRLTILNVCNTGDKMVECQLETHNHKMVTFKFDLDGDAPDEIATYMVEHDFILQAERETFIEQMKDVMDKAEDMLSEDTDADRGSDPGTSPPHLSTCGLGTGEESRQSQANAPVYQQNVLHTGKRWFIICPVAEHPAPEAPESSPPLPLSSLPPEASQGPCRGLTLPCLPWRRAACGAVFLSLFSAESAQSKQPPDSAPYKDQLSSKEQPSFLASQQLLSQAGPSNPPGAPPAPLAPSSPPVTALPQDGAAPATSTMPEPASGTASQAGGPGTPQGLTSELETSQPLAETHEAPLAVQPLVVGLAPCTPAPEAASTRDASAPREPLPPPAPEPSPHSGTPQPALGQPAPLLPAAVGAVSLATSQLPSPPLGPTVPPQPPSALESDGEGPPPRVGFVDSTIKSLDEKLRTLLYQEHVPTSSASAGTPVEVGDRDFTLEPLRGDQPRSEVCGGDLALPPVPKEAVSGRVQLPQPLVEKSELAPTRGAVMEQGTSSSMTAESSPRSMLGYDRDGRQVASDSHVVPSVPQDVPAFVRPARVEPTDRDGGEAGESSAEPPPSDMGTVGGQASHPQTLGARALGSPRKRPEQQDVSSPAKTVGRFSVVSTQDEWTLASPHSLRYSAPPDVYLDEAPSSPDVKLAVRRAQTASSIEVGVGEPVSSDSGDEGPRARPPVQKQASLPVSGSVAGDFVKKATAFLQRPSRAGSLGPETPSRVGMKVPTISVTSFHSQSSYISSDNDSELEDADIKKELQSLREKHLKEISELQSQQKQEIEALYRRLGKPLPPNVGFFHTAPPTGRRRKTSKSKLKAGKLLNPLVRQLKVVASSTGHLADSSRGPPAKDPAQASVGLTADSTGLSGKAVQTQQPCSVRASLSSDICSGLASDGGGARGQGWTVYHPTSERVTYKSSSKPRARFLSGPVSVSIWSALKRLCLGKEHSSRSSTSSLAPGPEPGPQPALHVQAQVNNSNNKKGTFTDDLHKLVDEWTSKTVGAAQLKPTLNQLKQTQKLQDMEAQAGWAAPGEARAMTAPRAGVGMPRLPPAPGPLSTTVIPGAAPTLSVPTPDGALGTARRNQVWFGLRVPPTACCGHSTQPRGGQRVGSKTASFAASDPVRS

COc1cc2nc(C)nc(N[C@H](C)c3cccc(-c4cn[nH]c4)c3)c2cc1OC gave an Activity [1] of 100%.
Work on COc1cc2ncnc(N[C@H](C)c3cccc4ccccc34)c2cc1OC yielded an Activity [2] of 100%, an Activity [3] of 100% and an Activity [4] of 98%. The Activity [5] was 28%, the Activity [6] was 79% and the Activity [7] was 81%. For the same compound, the Activity [8] was 97%, the Activity [9] was 78% and the Activity [10] was 100%. For the same compound, the Activity [11] was 100%, the Activity [12] was 100% and the Activity [13] was 72%. It also gave an Activity [14] of 94%, an Activity [15] of 89% and an Activity [16] of 72%. The Activity [17] was 100%.
